These are literature values, as cited in patent US20050049268A1, “Use of at least one abl, kit and/or platelet-derived growth factor receptor tyrosine kinases inhibitor for treating hair depigmentation” (priority 2001, published 2005).

Data set [1] deals with platelet-derived growth factor (PDGF) receptor tyrosine kinases. Conditions: in vitro.
A further data set concerns the target α-PDGF receptor (Homo sapiens, UniProt P16234).
For the next data set, the target named is β-PDGF receptor (Homo sapiens, UniProt P09619).
Another data set has as its target c-Met (Homo sapiens, UniProt P08581).
The target in the next data set is Jak-2 (Homo sapiens, UniProt O60674).
The target in data set [2] is receptor for stem cell factor (Homo sapiens, UniProt P10721).
receptor for stem cell factor, sequence (P10721 26-976): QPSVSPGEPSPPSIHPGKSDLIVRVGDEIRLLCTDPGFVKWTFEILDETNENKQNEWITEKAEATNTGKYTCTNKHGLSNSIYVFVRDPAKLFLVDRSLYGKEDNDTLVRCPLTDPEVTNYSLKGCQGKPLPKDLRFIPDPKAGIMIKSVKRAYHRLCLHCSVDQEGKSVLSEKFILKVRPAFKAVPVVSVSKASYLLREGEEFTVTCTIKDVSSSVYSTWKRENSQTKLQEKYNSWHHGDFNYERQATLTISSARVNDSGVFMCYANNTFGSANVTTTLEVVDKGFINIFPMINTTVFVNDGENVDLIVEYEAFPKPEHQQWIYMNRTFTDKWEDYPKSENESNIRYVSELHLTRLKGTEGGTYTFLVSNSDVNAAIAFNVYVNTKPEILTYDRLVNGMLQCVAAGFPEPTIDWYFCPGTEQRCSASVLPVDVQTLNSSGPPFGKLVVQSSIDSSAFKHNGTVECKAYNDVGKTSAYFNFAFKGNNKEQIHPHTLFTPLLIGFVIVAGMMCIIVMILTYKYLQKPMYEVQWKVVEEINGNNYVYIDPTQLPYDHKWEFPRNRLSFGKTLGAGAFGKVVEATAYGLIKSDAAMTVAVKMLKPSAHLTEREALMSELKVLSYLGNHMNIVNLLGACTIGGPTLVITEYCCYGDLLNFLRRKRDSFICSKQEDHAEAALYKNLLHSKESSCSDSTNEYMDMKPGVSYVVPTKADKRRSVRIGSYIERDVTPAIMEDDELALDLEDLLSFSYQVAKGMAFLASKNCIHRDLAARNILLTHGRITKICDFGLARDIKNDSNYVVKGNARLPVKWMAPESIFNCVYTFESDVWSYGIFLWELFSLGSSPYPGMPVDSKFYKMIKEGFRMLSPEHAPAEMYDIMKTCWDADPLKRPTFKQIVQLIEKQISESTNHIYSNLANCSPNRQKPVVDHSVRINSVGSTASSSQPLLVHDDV

Jak-2, sequence (O60674 whole entry, species assumed): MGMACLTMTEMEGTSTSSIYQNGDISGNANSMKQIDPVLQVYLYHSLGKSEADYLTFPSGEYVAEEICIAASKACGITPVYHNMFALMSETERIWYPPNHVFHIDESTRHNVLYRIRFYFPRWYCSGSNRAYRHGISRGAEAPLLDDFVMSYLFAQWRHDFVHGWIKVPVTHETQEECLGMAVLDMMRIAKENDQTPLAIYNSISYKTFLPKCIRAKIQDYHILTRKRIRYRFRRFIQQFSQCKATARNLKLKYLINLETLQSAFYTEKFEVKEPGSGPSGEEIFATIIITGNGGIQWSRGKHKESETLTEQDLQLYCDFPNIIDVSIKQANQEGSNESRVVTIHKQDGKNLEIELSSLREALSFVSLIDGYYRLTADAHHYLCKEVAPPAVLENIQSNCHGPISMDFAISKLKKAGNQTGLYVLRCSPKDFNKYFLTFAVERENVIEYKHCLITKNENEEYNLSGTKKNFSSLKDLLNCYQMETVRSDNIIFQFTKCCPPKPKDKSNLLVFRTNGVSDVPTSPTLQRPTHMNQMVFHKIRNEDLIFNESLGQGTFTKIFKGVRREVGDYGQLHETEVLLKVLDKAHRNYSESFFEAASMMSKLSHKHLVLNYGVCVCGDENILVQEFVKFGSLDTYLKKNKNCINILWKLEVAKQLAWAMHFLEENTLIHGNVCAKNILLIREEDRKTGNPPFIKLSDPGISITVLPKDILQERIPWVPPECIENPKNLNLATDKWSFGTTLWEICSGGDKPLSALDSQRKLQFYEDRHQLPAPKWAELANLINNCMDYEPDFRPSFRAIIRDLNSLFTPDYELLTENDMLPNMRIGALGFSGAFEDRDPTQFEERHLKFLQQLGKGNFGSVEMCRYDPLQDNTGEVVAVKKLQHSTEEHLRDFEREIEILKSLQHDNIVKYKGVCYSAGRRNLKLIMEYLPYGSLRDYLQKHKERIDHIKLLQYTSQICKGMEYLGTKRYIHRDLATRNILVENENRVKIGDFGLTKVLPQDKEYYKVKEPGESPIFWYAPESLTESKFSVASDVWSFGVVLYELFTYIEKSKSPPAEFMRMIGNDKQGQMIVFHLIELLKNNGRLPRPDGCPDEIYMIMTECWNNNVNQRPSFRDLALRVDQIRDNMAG
β-PDGF receptor, sequence (P09619 33-1106): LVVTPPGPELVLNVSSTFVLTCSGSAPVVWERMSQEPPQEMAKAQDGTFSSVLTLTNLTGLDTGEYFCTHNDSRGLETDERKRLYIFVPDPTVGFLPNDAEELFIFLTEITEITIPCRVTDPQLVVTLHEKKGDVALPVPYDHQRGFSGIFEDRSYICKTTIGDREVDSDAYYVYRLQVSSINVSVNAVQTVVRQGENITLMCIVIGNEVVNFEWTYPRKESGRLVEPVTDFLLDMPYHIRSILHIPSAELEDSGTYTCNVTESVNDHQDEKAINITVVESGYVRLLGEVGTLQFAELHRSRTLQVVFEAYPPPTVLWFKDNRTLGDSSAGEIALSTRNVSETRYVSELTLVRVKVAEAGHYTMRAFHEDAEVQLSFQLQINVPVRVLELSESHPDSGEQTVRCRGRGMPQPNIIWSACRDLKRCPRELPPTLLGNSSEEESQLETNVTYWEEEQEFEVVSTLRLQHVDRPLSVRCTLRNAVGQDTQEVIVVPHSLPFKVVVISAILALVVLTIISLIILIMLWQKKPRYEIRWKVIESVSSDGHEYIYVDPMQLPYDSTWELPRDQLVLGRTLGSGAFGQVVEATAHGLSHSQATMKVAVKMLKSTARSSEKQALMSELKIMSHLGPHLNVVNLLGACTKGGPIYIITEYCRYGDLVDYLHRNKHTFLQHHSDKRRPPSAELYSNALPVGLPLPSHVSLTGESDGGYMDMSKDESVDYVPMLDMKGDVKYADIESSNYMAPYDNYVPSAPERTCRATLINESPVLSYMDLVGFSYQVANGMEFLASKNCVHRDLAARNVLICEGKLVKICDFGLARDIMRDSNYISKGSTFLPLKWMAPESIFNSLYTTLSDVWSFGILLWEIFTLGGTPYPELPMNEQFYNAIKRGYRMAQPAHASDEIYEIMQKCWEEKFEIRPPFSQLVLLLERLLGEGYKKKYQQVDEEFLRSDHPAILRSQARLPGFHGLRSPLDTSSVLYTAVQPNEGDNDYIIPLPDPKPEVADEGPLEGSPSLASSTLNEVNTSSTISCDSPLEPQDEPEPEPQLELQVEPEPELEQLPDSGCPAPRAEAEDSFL
α-PDGF receptor, sequence (P16234 24-1089): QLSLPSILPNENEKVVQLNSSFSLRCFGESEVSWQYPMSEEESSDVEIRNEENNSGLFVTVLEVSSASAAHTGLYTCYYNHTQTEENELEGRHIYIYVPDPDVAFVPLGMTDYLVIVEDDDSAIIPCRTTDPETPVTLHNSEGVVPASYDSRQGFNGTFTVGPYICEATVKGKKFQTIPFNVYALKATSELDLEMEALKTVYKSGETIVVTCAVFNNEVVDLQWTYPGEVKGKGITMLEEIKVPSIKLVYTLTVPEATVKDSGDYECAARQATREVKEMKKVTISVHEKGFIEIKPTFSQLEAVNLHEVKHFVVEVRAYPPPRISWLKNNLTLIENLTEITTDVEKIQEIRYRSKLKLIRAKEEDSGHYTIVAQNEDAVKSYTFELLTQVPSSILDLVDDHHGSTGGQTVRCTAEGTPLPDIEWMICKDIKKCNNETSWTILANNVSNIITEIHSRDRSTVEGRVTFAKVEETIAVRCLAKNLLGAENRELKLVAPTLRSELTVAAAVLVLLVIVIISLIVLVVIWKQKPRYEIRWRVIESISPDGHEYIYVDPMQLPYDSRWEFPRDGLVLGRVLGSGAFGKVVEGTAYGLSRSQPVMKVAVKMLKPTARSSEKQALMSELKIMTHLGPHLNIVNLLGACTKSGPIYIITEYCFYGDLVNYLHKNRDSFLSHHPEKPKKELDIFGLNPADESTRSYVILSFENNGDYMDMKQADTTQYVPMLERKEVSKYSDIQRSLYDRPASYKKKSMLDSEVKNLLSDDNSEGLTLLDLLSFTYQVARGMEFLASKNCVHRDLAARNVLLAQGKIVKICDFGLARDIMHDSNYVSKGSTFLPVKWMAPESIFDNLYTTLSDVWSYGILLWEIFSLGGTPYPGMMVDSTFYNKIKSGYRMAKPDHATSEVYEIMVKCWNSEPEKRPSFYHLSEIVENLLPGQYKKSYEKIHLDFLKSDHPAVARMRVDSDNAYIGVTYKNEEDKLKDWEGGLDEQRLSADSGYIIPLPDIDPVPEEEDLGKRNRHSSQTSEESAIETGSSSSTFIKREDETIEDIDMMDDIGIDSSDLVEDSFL

Turning to `Cc1ccc(NC(=O)c2ccc(CN3CCN(C)CC3)cc2)cc1Nc1nccc(-c2cccnc2)n1` [Imatinib, N-{5-[4-(4-methyl-piperazino-methyl)-benzoylamido]-2-methylphenyl}-4-(3-pyridyl)-2-pyrimidine-amine], in data set [1], the “inhibition of PDGF receptor tyrosine kinases” value is recorded as “selectively inhibits”. Besides, the “inhibition of kinase activity of α-PDGF receptor” value at α-PDGF receptor was “potently inhibit”. Moreover, the “inhibition of kinase activity of β-PDGF receptor” value on β-PDGF receptor is recorded as “potently inhibit”. In addition, the “inhibition of c-Met” value on c-Met is reported as “no inhibition”. The “inhibition of Jak-2” value on Jak-2 was “no inhibition”. In addition, the “inhibition of kinase activity of the receptor for stem cell factor” value in data set [2] was “potently inhibit”.
